Measured values from patent publication US20230218654A1, “COMPOSITIONS AND METHODS FOR TREATING HYPERGLYCEMIA IN TYPE-2 DIABETES” (The Board of Regents of the university of Oklahoma, priority 2020, published 2023).

What was measured:
AML12 mouse hepatocytes = experiment: Western blot of insulin signaling and cullin neddylation in AML12 cells; assay type: cell-based
Protocol: MLN4924 increases IRS protein and AKT activation in the presence of insulin. Mouse AML 12 hepatocytes were serum starved for 16 h. Cells were then pre-treated with MLN4924 for 1 h followed by 100 nM insulin stimulation for 4 h. Western blot was then performed to evaluate insulin signaling activation.
AML 12 cells were serum starved for 16 h. Cells were then pre-treated with 500 nM MLN4924 or vehicle (DMSO) for 1 h, followed by 100 µg/ml cycloheximide (CHX) and 100 nM insulin treatment.
AML12 cells were serum starved for 16 h. Cells were then pre-treated with 500 nM MLN4924 for 1 h followed by 100 nM insulin stimulation in time course.
FIG. 18A is a Western blot analysis showing that MLN4924 enhances hepatocyte insulin responsiveness (signaling) by delaying feedback IRS degradation. AML12 cells were serum starved for 16 h. Cells were then pre-treated with MLN4924 for 1 h followed by insulin stimulation for 4 h.
FIG. 18D is a Western blot analysis of insulin signaling in AML12 cells serum starved for 16 h, then pre-treated with 500 nM MLN4924 for 1 h followed by 100 nM insulin stimulation in time course.
FIG. 18E is a Western blot analysis of AML12 cells serum starved for 16 h then pre-treated with 500 nM MLN4924 or vehicle (DMSO) for 1 h, followed by 100 µg/ml cycloheximide (CHX) and 100 nM insulin treatment. Cells were collected at the indicated time for Western blotting.
FIG. 18F is a Western blot analysis of insulin signaling in AML12 cells serum starved for 16 h then pre-treated with 100 nM rapamycin and 500 nM MLN4924 as indicated for 1 h followed by additional 2 h incubation in the presence or absence of 100 nM insulin. Blots are representative of 2-4 independent experiments.
(§1) FIG. 20 is a Western blot analysis showing that MLN4924 enhances hepatocyte insulin responsiveness in cells treated with wortmannin by delaying feedback IRS degradation (related to FIG. 18A). AML12 cells were serum starved for 16 h then pre-treated with 1 µM wortmannin (Wort) and 500 nM MLN4924 as indicated for 1 h followed by additional 2 h incubation in the presence or absence of 100 nM insulin. Blots are representative of 2 independent experiments.
as §1, with “21” for “20”, “Torin 1” for “wortmannin”, “250 nM Torin1” for “1 µM wortmannin (Wort)”
(§2) MLN4924 and TAS4464 were purchased from MedChemExpress (MCE, Monmouth Junction, NJ). For cell treatment, MLN4924 and TAS4464 were dissolved in DMSO. Cells were serum starved overnight and then treated with MLN4924, TAS4464 and/or insulin as indicated. For injection in mice, MLN4924 and TAS4464 were first dissolved in DMSO, which was further suspended in 10% (2-hydroxypropyl)-β-cyclodextrin (Sigma, St. Louis, MO). The final solution contains 1% DMSO. The subcutaneous injection volume is 200 µl/mouse.
Protein lysates were prepared in RIPA buffer containing 1% SDS and protease inhibitors on ice for 1 h followed by brief sonication. After centrifugation, supernatant was used for SDS-PAGE and immunoblotting.
AML12 cells were a generous gift from Dr. Yanqiao Zhang (Northeast Ohio Medical University). AML12 cells were cultured in DMEM medium supplemented with a mixture of insulin-transferrin-selenium (#41400-045, ThermoFisher, Waltham, MA). For experiments, cells were cultured in serum free medium overnight before various treatments were initiated. The siGENOME SMARTpool siRNA and siControl were purchased from Dharmacon, Inc. (Lafayette, CO). The siRNA was transfected with Lipofectamine RNAiMAX reagent in a final concentration of 25 nM recommended by the manufacturer. […]

male C57BL6/J mice = experiment: Plasma/serum insulin and c-peptide after acute neddylation inhibitor treatment; assay type: in vivo; conditions: 6 h fast
Protocol: Male C57BL6/J mice on chow diet were treated with 45 mg/kg TAS4464 via subcutaneous injection at 9 am. Mice were then fasted for 6 hours and serum insulin was measured. Blood samples were collected at 0 min and 120 min and used for insulin measurement (n=4). Left-hand bars are controls. Right-hand bars are TAS4464 treatments.
Male C57BL6/J mice on Western diet were treated with 15 mg/kg TAS4464 via subcutaneous injection at 9 am. Mice were then fasted for 6 hours and serum c-peptide were measured (n=5).
Male C57BL6/J mice on chow diet were treated with 60 mg/kg MLN4924 via subcutaneous injection at 9 am. Mice were then fasted for 6 hours and serum c-peptide were measured (n=8)
Aspartate aminotransferase (AST) and alanine aminotransferase (ALT) assay kits were purchased from Pointe Scientific (Canton, MI). Free fatty acid assay kit was purchased from Biovision Inc. (Milpitas, CA). Insulin ELISA kit was purchased from Crystal Chem Inc. (Elk Grove Village, IL).
A hyperinsulinemic-euglycemic clamp study was conducted in which obese mice were treated with vehicle or MLN4924.

[1] = system: insulin resistant and obese male C57BL/6J mice; experiment: Acute TAS4464 treatment of obese, insulin resistant WD-fed mice; assay type: in vivo; conditions: WD 8 weeks
Protocol: Mice were fed WD for 8 weeks to render them insulin resistant and obese. Mice were then treated with 45 mg/kg TAS4464 or vehicle once at 5 pm on day 1 and once at 9 am on day 2. Body weight and blood glucose were measured at 3 pm on day 2.
Mice were fed WD for 8 weeks, after which the mice were injected with vehicle or 45 mg/kg TAS4464 subcutaneously at 5 pm on day 1 and 9 am on day 2. Mice were fasted from 9 am to 3 pm on day 2 and blood glucose was measured. Results are expressed as mean ± SEM. […]. “*”, p < 0.05, vs. Vehicle.
as §2
Treatment of obese mice with TASS4464 reduced the blood glucose to ~100 mg/dl.

[2] = 1 µM wortmannin or 250 nM Torin1, 100 nM insulin

Row | Compound | downstream AKT activation (AML12 mouse hepatocytes; [2]) | downstream mTOR activation (AML12 mouse hepatocytes; [2]) | IRS protein (AML12 mouse hepatocytes; TAS4464 increasing doses, 5 h) | neddylated cullin 1 (AML12 mouse hepatocytes; TAS4464 increasing doses, 5 h) | total neddylated cullins (AML12 mouse hepatocytes; TAS4464 increasing doses, 5 h) | serum c-peptide concentration (male C57BL6/J mice; Western diet, 15 mg/kg SQ at 9 am) | serum insulin concentration (male C57BL6/J mice; chow diet, 45 mg/kg SQ at 9 am) | blood glucose after 6-hour fast ([1]; 45 mg/kg SQ at 5 pm day 1 and 9 am day 2) | blood glucose (in words) ([1]; 45 mg/kg SQ twice, 6 h fast)
1 | CCC(=O)N1CCN(c2ccc(-n3c(=O)ccc4cnc5ccc(-c6cnc7ccccc7c6)cc5c43)cc2C(F)(F)F)CC1 [Torin 1] | decreased downstream AKT activation | blocked downstream mTOR activation | – | – | – | – | – | – | –
2 | CCOc1cccc(F)c1C#Cc1cn([C@@H]2O[C@H](CNS(N)(=O)=O)[C@@H](O)[C@H]2O)c2ncnc(N)c12 [TAS4464, 7H-Pyrrolo[2,3-d]pyrimidin-4-amine, 7-[5-[(aminosulfonyl)amino]-5-deoxy-beta-D-ribofuranosyl]-5-[2-(2-ethoxy-6-fluorophenyl)ethynyl]-] | – | – | increased IRS protein | significantly inhibited | significantly inhibited | elevated serum c-peptide concentration | increases serum insulin concentration | ~ 100 mg/dl | acutely reduced blood glucose
